Measured values reported in ChEMBL document CHEMBL1144831, “Pyrano-[2,3b]-pyridines as potassium channel antagonists” (Bioorg Med Chem Lett, 2008).
Values after ≈ are worked out from the molar mass of the structure shown.

Legend:
[1] = target: T1, Potassium voltage-gated channel subfamily A member 5 (Homo sapiens, UniProt P22460); experiment: Inhibition of human Kv1.5 channel expressed in mouse L929 cells assessed as blockade of ultra rapidly activating potassium current by voltage clamp technique; assay type: cell-based
T1 sequence (P22460 whole entry): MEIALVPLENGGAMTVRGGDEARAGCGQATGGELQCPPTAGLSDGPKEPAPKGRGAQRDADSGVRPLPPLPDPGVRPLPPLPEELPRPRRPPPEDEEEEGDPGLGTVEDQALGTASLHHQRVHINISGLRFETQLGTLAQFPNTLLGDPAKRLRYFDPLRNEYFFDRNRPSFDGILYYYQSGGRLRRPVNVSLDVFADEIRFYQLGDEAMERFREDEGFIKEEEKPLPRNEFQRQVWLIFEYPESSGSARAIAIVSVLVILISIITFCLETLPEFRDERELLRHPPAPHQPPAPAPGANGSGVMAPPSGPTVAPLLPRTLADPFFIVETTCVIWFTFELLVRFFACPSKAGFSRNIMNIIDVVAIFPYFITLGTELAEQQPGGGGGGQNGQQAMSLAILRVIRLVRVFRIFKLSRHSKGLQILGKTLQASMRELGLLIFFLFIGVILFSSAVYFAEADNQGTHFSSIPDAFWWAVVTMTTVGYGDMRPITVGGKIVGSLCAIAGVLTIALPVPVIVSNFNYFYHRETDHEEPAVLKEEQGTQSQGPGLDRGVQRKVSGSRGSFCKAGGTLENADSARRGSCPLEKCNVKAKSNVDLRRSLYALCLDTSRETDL

[2] = target: T1, Potassium voltage-gated channel subfamily A member 5; experiment: Inhibition of human Kv1.5 channel expressed in mouse L929 cells assessed as blockade of ultra rapidly activating potassium current at 1 uM by voltage clamp technique; assay type: cell-based
[3] = Aqueous solubility at pH 6.5; assay type: physicochemical

Row | Compound | IC50 [1] [nM] | inhibition [2] [%] | solubility [3] [µg/mL]
1 | CCc1ccc(S(=O)(=O)N[C@@H]2c3cc(C(=O)N(CC)c4cc(F)ccc4F)cnc3OC(C)(C)[C@H]2O)cc1 (racemic) | 912 | 52 | –
2 | CCc1ccc(S(=O)(=O)N[C@@H]2c3cc(C(=O)N(CC)Cc4ccc(OC)cc4)cnc3OC(C)(C)[C@H]2O)cc1 (racemic) | 605 | 70 | –
3 | CCc1ccc(S(=O)(=O)N[C@@H]2c3cc(C(=O)Nc4cc(NC(C)=O)n[nH]4)cnc3OC(C)(C)[C@H]2O)cc1 (racemic) | – | 31 | –
4 | CCc1ccc(S(=O)(=O)N[C@@H]2c3cc(C(=O)N4CCC[C@H]4CNc4c(C)cccc4C)cnc3OC(C)(C)[C@H]2O)cc1 (racemic) | – | 15 | –
5 | CCc1ccc(S(=O)(=O)N[C@@H]2c3cc(C(=O)Nc4nnc(C(F)(F)F)s4)cnc3OC(C)(C)[C@H]2O)cc1 (racemic) | – | 3 | –
6 | CCc1ccc(S(=O)(=O)N[C@@H]2c3cc(C(=O)N4CCC[C@H]4CNc4c(C)cccc4C)ccc3OC(C)(C)[C@H]2O)cc1 (racemic) | 60 | – | –
7 | CCc1ccc(S(=O)(=O)N[C@@H]2c3cc(NC(=O)c4cccc(OC)c4)ccc3C[C@H]2O)cc1 | 50 | – | –
8 | CCc1ccc(S(=O)(=O)N[C@@H]2c3cc(C(=O)N4CCc5ccccc54)cnc3OC(C)(C)[C@H]2O)cc1 (racemic) | – | 30 | –
9 | CCc1ccc(S(=O)(=O)N[C@H]2CCCc3ccc(N(Cc4cccc(C)n4)C(=O)CCc4ccccc4)cc32)cc1 | 46 | – | –
10 | CCc1ccc(S(=O)(=O)N[C@@H]2c3cc(C(=O)N(CC)Cc4c(F)cccc4Cl)cnc3OC(C)(C)[C@H]2O)cc1 (racemic) | 615 | 54 | –
11 | CCc1ccc(S(=O)(=O)N[C@@H]2c3cc(C(=O)N(CC)Cc4cccc(OC)c4)cnc3OC(C)(C)[C@H]2O)cc1 (racemic) | – | 23 | –
12 | CCc1ccc(S(=O)(=O)N[C@@H]2c3cc(C(=O)N(CC)Cc4ccc(C)cc4)cnc3OC(C)(C)[C@H]2O)cc1 (racemic) | 1560 | 15 | –

More lines, now with the values ahead:

Row | IC50 [1] [nM] | inhibition [2] [%] | solubility [3] [µg/mL] | Compound
13 | – | 4 | – | CCc1ccc(S(=O)(=O)N[C@@H]2c3cc(C(=O)NCc4ccccc4F)cnc3OC(C)(C)[C@H]2O)cc1 (racemic)
14 | 2090 | 35 | – | CCc1ccc(S(=O)(=O)N[C@@H]2c3cc(C(=O)N(CC)Cc4ccccc4OC)cnc3OC(C)(C)[C@H]2O)cc1 (racemic)
15 | – | 2 | – | CCc1ccc(S(=O)(=O)N[C@@H]2c3cc(C(=O)N4CCN=C4c4ccccc4)cnc3OC(C)(C)[C@H]2O)cc1 (racemic)
16 | 316 | 73 | – | CCc1ccc(S(=O)(=O)N[C@@H]2c3cc(C(=O)Nc4ccc(Br)cc4)ccc3OC(C)(C)[C@H]2O)cc1 (racemic)
17 | 378 | 89 | 108 (≈ 212 µM) | CCc1ccc(S(=O)(=O)N[C@@H]2c3cc(C(=O)N(CC)c4ccccc4)cnc3OC(C)(C)[C@H]2O)cc1 (racemic)
18 | 776 | 58 | – | CCc1ccc(S(=O)(=O)N[C@@H]2c3cc(C(=O)N(CC)c4cccc(C)c4)cnc3OC(C)(C)[C@H]2O)cc1 (racemic)
19 | – | 17 | – | CCc1ccc(S(=O)(=O)N[C@@H]2c3cc(C(=O)NCc4ccccc4)cnc3OC(C)(C)[C@H]2O)cc1 (racemic)
20 | – | 20 | – | CCc1ccc(S(=O)(=O)N[C@@H]2c3cc(C(=O)N(CC)Cc4ccccc4)cnc3OC(C)(C)[C@H]2O)cc1 (racemic)
21 | – | 87 | – | CCc1ccc(S(=O)(=O)N[C@@H]2c3cc(C(=O)N(C)c4ccccc4)ccc3OC(C)(C)[C@H]2O)cc1 (racemic)
22 | – | 8 | – | CCc1ccc(S(=O)(=O)N[C@@H]2c3cc(C(=O)Nc4ccc(Br)cc4)cnc3OC(C)(C)[C@H]2O)cc1 (racemic)
23 | – | 12 | – | CCc1ccc(S(=O)(=O)N[C@@H]2c3cc(C(=O)N(C)c4ccccc4)cnc3OC(C)(C)[C@H]2O)cc1 (racemic)
24 | – | – | 10 (≈ 18.5 µM) | CCc1ccc(S(=O)(=O)N[C@@H]2c3cc(C(=O)N(CC)Cc4ccccc4F)ccc3OC(C)(C)[C@H]2O)cc1 (racemic)
25 | – | 12 | – | CCc1ccc(S(=O)(=O)N[C@@H]2c3cc(C(=O)N(C)Cc4ccccc4)cnc3OC(C)(C)[C@H]2O)cc1 (racemic)
26 | – | 22 | – | CCc1ccc(S(=O)(=O)N[C@@H]2c3cc(C(=O)N(CC)c4ccc(OC)cc4)cnc3OC(C)(C)[C@H]2O)cc1 (racemic)
27 | 649 | 64 | – | CCc1ccc(S(=O)(=O)N[C@@H]2c3cc(C(=O)N(CC)c4cccc(Cl)c4)cnc3OC(C)(C)[C@H]2O)cc1 (racemic)
